In ChEMBL document CHEMBL1145478, “Neisseria gonorrhoeae isolates with reduced susceptibility to cefixime and ceftriaxone: association with genetic polymorphisms in penA, mtrR, porB1b, and ponA” (2007):
≈ marks a conversion by molar mass, not a printed value.

How the values were obtained:
Format in all cases: functional
Neisseria gonorrhoeae [1] = test: Antimicrobial activity against Neisseria gonorrhoeae 59 isolate
Neisseria gonorrhoeae [2] = test: Antimicrobial activity against Neisseria gonorrhoeae 253 isolate
Neisseria gonorrhoeae [3] = test: Antimicrobial activity against Neisseria gonorrhoeae 196 isolate
Neisseria gonorrhoeae [4] = test: Antimicrobial activity against Neisseria gonorrhoeae 201 isolate
Neisseria gonorrhoeae [5] = test: Antimicrobial activity against Neisseria gonorrhoeae 65 isolate
Neisseria gonorrhoeae [6] = test: Antimicrobial activity against Neisseria gonorrhoeae 67 isolate
Neisseria gonorrhoeae [7] = test: Antimicrobial activity against Neisseria gonorrhoeae 90 isolate
Neisseria gonorrhoeae [8] = test: Antimicrobial activity against Neisseria gonorrhoeae 188 isolate
Neisseria gonorrhoeae [9] = test: Antimicrobial activity against Neisseria gonorrhoeae 128 isolate
Neisseria gonorrhoeae [10] = test: Antimicrobial activity against Neisseria gonorrhoeae 119 isolate
Neisseria gonorrhoeae [11] = test: Antimicrobial activity against Neisseria gonorrhoeae 91 isolate
Neisseria gonorrhoeae [12] = test: Antimicrobial activity against Neisseria gonorrhoeae 35 isolate
Neisseria gonorrhoeae [13] = test: Antimicrobial activity against Neisseria gonorrhoeae 158 isolate
Neisseria gonorrhoeae [14] = test: Antimicrobial activity against Neisseria gonorrhoeae 82 isolate
Neisseria gonorrhoeae [15] = test: Antimicrobial activity against Neisseria gonorrhoeae 30 isolate
Neisseria gonorrhoeae [16] = test: Antimicrobial activity against Neisseria gonorrhoeae 64 isolate
Neisseria gonorrhoeae [17] = test: Antimicrobial activity against Neisseria gonorrhoeae 273 isolate

Row | Structure (SMILES) | MIC (Neisseria gonorrhoeae [1]) [µg/mL] | MIC (Neisseria gonorrhoeae [2]) [µg/mL] | MIC (Neisseria gonorrhoeae [3]) [µg/mL] | MIC (Neisseria gonorrhoeae [4]) [µg/mL] | MIC (Neisseria gonorrhoeae [5]) [µg/mL] | MIC (Neisseria gonorrhoeae [6]) [µg/mL] | MIC (Neisseria gonorrhoeae [7]) [µg/mL] | MIC (Neisseria gonorrhoeae [8]) [µg/mL] | MIC (Neisseria gonorrhoeae [9]) [µg/mL] | MIC (Neisseria gonorrhoeae [10]) [µg/mL] | MIC (Neisseria gonorrhoeae [11]) [µg/mL] | MIC (Neisseria gonorrhoeae [12]) [µg/mL] | MIC (Neisseria gonorrhoeae [13]) [µg/mL] | MIC (Neisseria gonorrhoeae [14]) [µg/mL] | MIC (Neisseria gonorrhoeae [15]) [µg/mL] | MIC (Neisseria gonorrhoeae [16]) [µg/mL] | MIC (Neisseria gonorrhoeae [17]) [µg/mL]
1 | C=CC1=C(C(=O)O)N2C(=O)[C@@H](NC(=O)/C(=N\OCC(=O)O)c3csc(N)n3)[C@H]2SC1 [CEFIXIME] | 0.25 (≈ 0.551 µM) | 0.064 (≈ 0.141 µM) | 0.094 (≈ 0.207 µM) | 0.064 (≈ 0.141 µM) | 0.25 (≈ 0.551 µM) | 0.25 (≈ 0.551 µM) | 0.38 (≈ 0.838 µM) | 0.064 (≈ 0.141 µM) | < 0.016 | < 0.016 | 0.38 (≈ 0.838 µM) | 0.38 (≈ 0.838 µM) | 0.047 (≈ 0.104 µM) | 0.38 (≈ 0.838 µM) | 0.25 (≈ 0.551 µM) | 0.25 (≈ 0.551 µM) | 0.064 (≈ 0.141 µM)
2 | CO/N=C(\C(=O)N[C@@H]1C(=O)N2C(C(=O)O)=C(CSc3nc(=O)c(O)nn3C)CS[C@H]12)c1csc(N)n1 [CEFTRIAXONE] | 0.094 (≈ 0.169 µM) | 0.064 (≈ 0.115 µM) | 0.094 (≈ 0.169 µM) | 0.064 (≈ 0.115 µM) | 0.094 (≈ 0.169 µM) | 0.094 (≈ 0.169 µM) | 0.125 (≈ 0.225 µM) | 0.064 (≈ 0.115 µM) | < 0.002 | < 0.002 | 0.125 (≈ 0.225 µM) | 0.094 (≈ 0.169 µM) | 0.094 (≈ 0.169 µM) | 0.125 (≈ 0.225 µM) | 0.094 (≈ 0.169 µM) | 0.094 (≈ 0.169 µM) | 0.094 (≈ 0.169 µM)
3 | CC1(C)S[C@@H]2[C@H](NC(=O)Cc3ccccc3)C(=O)N2[C@H]1C(=O)O [PENICILLIN G] | 6 (≈ 17.9 µM) | 1.5 (≈ 4.49 µM) | 1 (≈ 2.99 µM) | 1 (≈ 2.99 µM) | 1.5 (≈ 4.49 µM) | 2 (≈ 5.98 µM) | 6 (≈ 17.9 µM) | 1 (≈ 2.99 µM) | 0.008 (≈ 0.0239 µM) | 0.012 (≈ 0.0359 µM) | 6 (≈ 17.9 µM) | 2 (≈ 5.98 µM) | 1.5 (≈ 4.49 µM) | 6 (≈ 17.9 µM) | 3 (≈ 8.97 µM) | 2 (≈ 5.98 µM) | 1.5 (≈ 4.49 µM)
